From patent publication US9278940B2, “Cyclic amines as bromodomain inhibitors” (Zenith Epigenetics Corp., priority 2012, dated 2016)
Counter-ions that a name gives are not always drawn.

What was measured:
[1] = test system: Human AML MV-4-11 cells; experiment: Inhibition of cell proliferation in MV4-11 cells; type: cell-based; parameters: key: Active: Compounds with an IC50 value less than 30 μM are deemed to be active.; Not Active: Compounds with an IC50 value less than 30 μM are deemed to be active; conditions: 72 hours
Experimental: MV4-11 cells: 96-well plates were seeded with 5×10^4 cells per well of exponentially growing human AML MV-4-11 (CRL-9591) cells and immediately treated with two-fold dilutions of test compounds, ranging from 30 μM to 0.2 μM. Triplicate wells were used for each concentration, as well as a media only and three DMSO control wells. The cells and compounds were incubated at 37° C., 5% CO2 for 72 hours before adding 20 μL of the CellTiter Aqueous One Solution (Promega) to each well and incubating at 37° C., 5% CO2 for an additional 3-4 hours. The absorbance was taken at 490 nm in a spectrophotometer and the percentage of proliferation relative to DMSO-treated cells was calculated after correction from the blank well. IC50 were calculated using the GraphPad Prism software.

[2] = test system: c-myc; experiment: Inhibition of c-myc expression (mRNA, real-time PCR) in MV4-11 cells; type: cell-based; parameters: key: Active: Compounds with an IC50 value less than 30 μM were deemed to be active.; Not Active: Compounds with an IC50 value less than 30 μM were deemed to be active; conditions: Human AML MV4-11 cells, 3 hours
Experimental: MV4-11 cells (2.5×10^4 cells) were plated in 96 well U-bottom plates with test compound or DMSO (0.1%), and incubated for 3 hours at 37° C. Cells were then harvested by centrifugation, lysed, and mRNA was isolated using the mRNA catcher plus kit (Invitrogen). Reverse transcription of the mRNA and duplex amplification of the c-myc and cyclophilin cDNAs was performed using the RNA Ultrasense kit (Invitrogen) and a ViiA7 real-time PCR machine (Applied Biosystems). IC50 values were determined from a dose response curve.

[3] = test system: hApoA-1 mRNA; experiment: Up-regulation of hApoA-1 mRNA transcription in Huh7 cells; type: cell-based, human; parameters: key: Active: Compounds with an EC170 value less than 30 μM are deemed to be active.; Not Active: Compounds with an EC170 value less than 30 μM are deemed to be active; conditions: 48 hrs treatment, ApoA-I mRNA
Experimental: In this example, ApoA-I mRNA in tissue culture cells was quantitated to measure the transcriptional up-regulation of ApoA-I when treated with a compound of the present disclosure.
Huh7 cells ([…] per well) were plated in a 96-well plate using 100 μL DMEM per well, (Gibco DMEM supplemented with penicillin/streptomycin and 10% FBS), 24 h before the addition of the compound of interest. After 48 hrs treatment, the spent media was removed from the Huh-7 cells and placed on ice (for immediate use) or at −80° C. (for future use) with the “LDH cytotoxicity assay Kit II” from Abcam. The cells remaining in the plate were rinsed with 100 μL PBS.
Then 85 μL of cell lysis solution was added to each well and incubated for 5-10 minutes at room temperature, to allow for complete cell lysis and detachment. mRNA was then prepared using the “mRNA Catcher PLUS plate” from Life Technologies, according to the protocol supplied. After the last wash, as much wash buffer as possible was aspirated without allowing the wells to dry. Elution Buffer (E3, 80 μL) was then added to each well. mRNA was then eluted by incubating the mRNA Catcher PLUS plate with Elution Buffer for 5 minutes at 68° C., and then 1 minute at 4° C. Catcher plates with mRNA eluted were kept on ice for use or stored at −80° C.
The eluted mRNA isolated was then used in a one-step real-time PCR reaction, using components of the Ultra Sense Kit together with Life Technologies primer-probe mixes. Real-time PCR data was analyzed, using the Ct values, to determine the fold induction of each unknown sample, relative to the control (that is, relative to the control for each independent DMSO concentration).
Compounds with an EC170 value less than 30 μM are deemed to be active.

[4] = test system: hIL-6 mRNA; experiment: Inhibition of hIL-6 mRNA transcription in LPS-stimulated U937 macrophages; type: cell-based, human; parameters: key: Active: Compounds with an IC50 value less than 30 μM are deemed to be active.; Not Active: Compounds with an IC50 value less than 30 μM are deemed to be active; conditions: U937 cells differentiated with PMA, 1 h pretreatment, LPS 3 h
Experimental: In this example, hIL-6 mRNA in tissue culture cells was quantitated to measure the transcriptional inhibition of hIL-6 when treated with a compound of the present disclosure.
A human leukemic monocyte lymphoma cell line (U937) was plated (3.2×10^4 cells per well) in a 96-well plate in […] RPMI-1640 containing 10% FBS and penicillin/streptomycin, and differentiated into macrophages for 3 days in 60 ng/mL PMA ([…]) at 37° C. in 5% CO2 prior to the addition of the compound of interest. The cells were pretreated for 1 h with the test compound prior to stimulation with 1 ug/mL lipopolysaccharide from Escherichia coli. The cells were incubated at 37-C for 3 h before the cells were harvested. At time of harvest, the spent media was removed from the cells and the cells were rinsed in 200 μL PBS. Cell lysis solution (70 μL) was added the cells in each well and incubated for 5-10 min at room temperature, to allow for complete cell lysis and detachment. mRNA was then prepared using the “mRNA Catcher PLUS plate” (Invitrogen), according to the protocol supplied. After the last wash, as much wash buffer as possible was aspirated without allowing the wells to dry. Elution buffer (E3, 70 μL) was then added to each well. mRNA was then eluted by incubating the mRNA Catcher PLUS plate with Elution Buffer for 5 min at 68° C. and then immediately placing the plate on ice.
The eluted mRNA isolated was then used in a one-step quantitative real-time PCR reaction, using components of the Ultra Sense Kit together with Applied Biosystems primer-probe mixes. Real-time PCR data was analyzed, normalizing the Ct values for hIL-6 to an internal control, prior to determining the fold induction of each unknown sample, relative to the control.

[5] = target: T1, Brd4 bromodomain 1 (Homo sapiens, UniProt O60885); experiment: Inhibition of tetra-acetylated histone H4 binding to BET bromodomain (TR-FRET); parameters: key: Active: Compounds with an IC50 value less than 30 μM were deemed to be active.; Not Active: Compounds with an IC50 value less than 30 μM were deemed to be active; conditions: Brd4 bromodomain 1, tetra-acetylated histone H4 peptide
T1 construct: made in house; host or cells: E. coli BL21(DE3)
Experimental: Proteins were cloned and overexpressed with a N-terminal 6×His tag, then purified by nickel affinity followed by size exclusion chromatography. Briefly, E. coli BL21(DE3) cells were transformed with a recombinant expression vector encoding N-terminally Nickel affinity tagged bromodomains from Brd2, Brd3, Brd4. Cell cultures were incubated at 37° C. with shaking to the appropriate density and induced overnight with IPTG. The supernatant of lysed cells was loaded onto Ni-IDA column for purification. Eluted protein is pooled, concentrated and further purified by size exclusion chromatography. Fractions representing monomeric protein were pooled, concentrated, aliquoted, and frozen at −80° C. for use in subsequent experiments.
Binding of tetra-acetylated histone H4 and BET bromodomains was confirmed by a Time Resolved Fluorescence Resonance Energy Transfer (TR-FRET) method. N-terminally His-tagged bromodomains (200 nM) and biotinylated tetra-acetylated histone H4 peptide (25-50 nM, Millipore) were incubated in the presence of Europium Cryptate-labeled streptavidin (Cisbio Cat. #610SAKLB) and XL665-labeled monoclonal anti-His antibody (Cisbio Cat. #61HISXLB) in a white 96 well microtiter plate (Greiner). For inhibition assays, serially diluted test compound was added to these reactions in a 0.2% final concentration of DMSO. Final buffer concentrations were 30 mM HEPES pH 7.4, 30 mM NaCl, 0.3 mM CHAPS, 20 mM phosphate pH 7.0, 320 mM KF, 0.08% BSA). After 2 hours incubation at room temperature, the fluorescence by FRET was measured at 665 and 620 nm by a SynergyH4 plate reader (Biotek). The binding inhibitory activity was shown by a decrease in 665 nm fluorescence relative to 620 nm. IC50 values were determined from a dose response curve.

Row | SMILES | melting point | cell proliferation activity (IC50 < 30 μM) [1] | c-myc activity (IC50 < 30 μM) [2] | ApoA-1 activity (EC170 < 30 μM) [3] | IL-6 activity (IC50 < 30 μM) [4] | FRET activity (IC50 < 30 μM) [5]
1 | COc1cc(OC)c2c(=O)[nH]c(-c3ccc(OCCO)c(N4CCN(C(C)C)CC4)n3)nc2c1 (as salt: acetate) [Example 13, 2-(5-(2-Hydroxyethoxy)-6-(4-isopropylpiperazin-1-yl)pyridin-2-yl)-5,7-dimethoxyquinazolin-4(3H)-one acetate] | 138 to 139 °C |  |  |  |  | 
2 | COc1cc(OC)c2c(=O)[nH]c(-c3ccc(OCCO)c(N4CCN(C(C)C)CC4)n3)nc2c1 [Example 13, 2-(5-(2-Hydroxyethoxy)-6-(4-isopropylpiperazin-1-yl)pyridin-2-yl)-5,7-dimethoxyquinazolin-4(3H)-one acetate] |  | Not Active | Active | Active | Active | Active
3 | COc1cc(OC)c2c(=O)[nH]c(-c3ccc(OCCNC(C)C)c(N4CCN(C(C)C)CC4)n3)nc2c1 [Example 12, 2-(5-(2-(Isopropylamino)ethoxy)-6-(4-isopropylpiperazin-1-yl)pyridin-2-yl)-5,7-dimethoxyquinazolin-4(3H)-one bis(trifluoroacetate)] |  | Active | Active | Active | Not Active | Active
4 | COc1cc(OC)c2c(=O)[nH]c(-c3cc(Cl)cc(N4CCN(C(C)C)CC4)c3)nc2c1 [Example 32, 2-(3-Chloro-5-(4-isopropylpiperazin-1-yl)phenyl)-5,7-dimethoxyquinazolin-4(3H)-one] |  | Active | Active | Active | Active | Active
5 | COc1cc(OC)c2c(=O)[nH]c(-c3cc(Cl)cc(N4CCNCC4)c3)nc2c1 [Example 31, 2-(3-Chloro-5-(piperazin-1-yl)phenyl)-5,7-dimethoxyquinazolin-4(3H)-one] |  | Active | Active | Active | Active | Active
6 | COc1cc(OC)c2c(=O)[nH]c(-c3cccc(N4CCN(C)CC4)n3)nc2c1 [Example 15, 5,7-Dimethoxy-2-(6-(4-methylpiperazin-1-yl)pyridin-2-yl)quinazolin-4(3H)-one Hydrochloride] |  | Active | Active | Active | Active | Active
7 | CCC(=O)N1CCN(c2cccc(-c3nc4cc(OC)cc(OC)c4c(=O)[nH]3)n2)CC1 [Example 19, 5,7-Dimethoxy-2-(6-(4-propionylpiperazin-1-yl)pyridin-2-yl)quinazolin-4(3H)-one dihydrochloride] |  | Not Active | Not Active | Active | Not Active | Active
8 | COc1cc(OC)c2c(=O)[nH]c(-c3cccc(N4CCC(N(C)C)CC4)n3)nc2c1 [Example 29, 2-(6-(4-(Dimethylamino)piperidin-1-yl)pyridin-2-yl)-5,7-dimethoxyquinazolin-4(3H)-one] |  | Active | Active | Active | Active | Active
9 | COc1cc(OC)c2c(=O)[nH]c(-c3cccc(N4CCN(CCS(C)(=O)=O)CC4)n3)nc2c1 [Example 6, 5,7-Dimethoxy-2-(6-(4-(2-(methylsulfonyl)ethyl)piperazin-1-yl)pyridin-2-yl)quinazazolin-4(3H)-one] |  | Not Active | Not Active | Active | Active | Active
